Measurements published in US20190309272A1, “Genetically Modified Cell Lines Including a TP53 Modification and Methods of Use” (UNIVERSITY OF SOUTH CAROLINA, priority 2018, published 2019).
Where a name gives a salt, the structure may show the parent alone. Read-outs that look alike come from different tables or passages of the source.

Legend:
Format in all cases: cell-based, Human
[1] = test system: MCF7 TP53 KO 56 A5; test: Drug treatment of single cell clone KO 56 A5; conditions: ten day drug treatment
[2] = test system: MCF7 TP53 KO 56 C5; test: Drug treatment of single cell clone KO 56 C5; conditions: ten day drug treatment
[3] = test system: MCF7 TP53 KO 56 A6; test: Drug treatment of single cell clone KO 56 A6; conditions: ten day drug treatment
[4] = test system: MCF7 TP53 KO 3.4 pool; test: Drug screening, resazurin, TP53 KO 3.4 pool; conditions: for area under the curve (AUC): KO 34 Pool, ten day drug treatment (Table 3)
[5] = test system: MCF7 TP53 KO 34 D4; test: Drug treatment of single cell clone KO 34 D4; conditions: ten day drug treatment; further: unit not given here
[6] = test system: MCF7 WT Parental pool; test: Drug screening, resazurin, MCF7 wild type parental pool; conditions: for area under the curve (AUC): PR WT Pool, ten day drug treatment (Table 3)
[7] = test system: MCF7 TP53 KO 56 A8; test: Drug treatment of single cell clone KO 56 A8; conditions: ten day drug treatment
[8] = test system: MCF7 TP53 KO 34 B5; test: Drug treatment of single cell clone KO 34 B5; conditions: ten day drug treatment; further: unit not given here
[9] = test system: MCF7 TP53 KO 34 E1; test: Drug treatment of single cell clone KO 34 E1; conditions: ten day drug treatment
[10] = test system: MCF7 PR WT A8; test: Drug treatment of single cell clone PR WT A8; conditions: ten day drug treatment; further: unit not given here
[11] = test system: MCF7 PR WT B8; test: Drug treatment of single cell clone PR WT B8; conditions: ten day drug treatment; further: unit not given here
[12] = test system: MCF7 TP53 KO 56 E1; test: Drug treatment of single cell clone KO 56 E1; conditions: ten day drug treatment; further: unit not given here
[13] = test system: MCF7 TP53 KO 56 A7; test: Drug treatment of single cell clone KO 56 A7; conditions: ten day drug treatment; further: unit not given here
[14] = test system: MCF7 TP53 KO 5.6 pool; test: Drug screening, resazurin, TP53 KO 5.6 pool; conditions: for area under the curve (AUC): KO 56 Pool, ten day drug treatment (Table 3)
[15] = test system: MCF7 TP53 KO 56 E3; test: Drug treatment of single cell clone KO 56 E3; conditions: ten day drug treatment
[16] = test system: MCF7 PR WT C7; test: Drug treatment of single cell clone PR WT C7; conditions: ten day drug treatment; further: unit not given here
[17] = test system: MCF7 TP53 KO 56 A4; test: Drug treatment of single cell clone KO 56 A4; conditions: ten day drug treatment
[18] = test system: MCF7 PR WT G2; test: Drug treatment of single cell clone PR WT G2; conditions: ten day drug treatment; further: unit not given here
[19] = ten-day drug treatment, 156.25 nM to 10 μM, resazurin fluorescence

O=c1[nH]cc(F)c(=O)[nH]1 [Fluorouracil]
area under the curve (AUC) [1]: 1.46
area under the curve (AUC) [2]: 1.826
area under the curve (AUC) [3]: 1.811
area under the curve (AUC) [4]: 1.721
TP53 KO 3.4 pool (AUC) [4, 19]: 3.782
area under the curve (AUC) [5]: 1.812
area under the curve (AUC) [6]: 2.156
MCF7 WT Parental pool (AUC) [6, 19]: 6.548
area under the curve (AUC) [7]: 2.02
area under the curve (AUC) [8]: 1.618
area under the curve (AUC) [9]: 1.945
area under the curve (AUC) [10]: 2.126
area under the curve (AUC) [11]: 1.886
area under the curve (AUC) [12]: 1.697
area under the curve (AUC) [13]: 1.81
area under the curve (AUC) [14]: 1.745
TP53 KO 5.6 pool (AUC) [14, 19]: 4.286
area under the curve (AUC) [15]: 1.645
area under the curve (AUC) [16]: 2.105
area under the curve (AUC) [17]: 1.716
area under the curve (AUC) [18]: 2.265

COc1ccc(C2=N[C@@H](c3ccc(Cl)cc3)[C@@H](c3ccc(Cl)cc3)N2C(=O)N2CCNC(=O)C2)c(OC(C)C)c1 [Nutlin3]
area under the curve (AUC) [6]: 1.16
MCF7 WT Parental pool (AUC) [6, 19]: 3.686
area under the curve (AUC) [10]: 0.9589
area under the curve (AUC) [11]: 0.8828
area under the curve (AUC) [16]: 1.042
area under the curve (AUC) [18]: 1.011

O=C1[O][Pt]2([NH][C@@H]3CCCC[C@H]3[NH]2)[O]C1=O [Oxaliplatin]
area under the curve (AUC) [1]: 1.197
area under the curve (AUC) [2]: 1.239
area under the curve (AUC) [3]: 1.243
area under the curve (AUC) [4]: 1.25
TP53 KO 3.4 pool (AUC) [4, 19]: 5.272
area under the curve (AUC) [5]: 1.392
area under the curve (AUC) [6]: 0.9557
MCF7 WT Parental pool (AUC) [6, 19]: 2.372
area under the curve (AUC) [7]: 1.229
area under the curve (AUC) [8]: 0.973
area under the curve (AUC) [9]: 1.46
area under the curve (AUC) [10]: 0.7779
area under the curve (AUC) [11]: 0.7911
area under the curve (AUC) [12]: 1.208
area under the curve (AUC) [13]: 1.23
area under the curve (AUC) [14]: 1.164
TP53 KO 5.6 pool (AUC) [14, 19]: 5.118
area under the curve (AUC) [15]: 0.9635
area under the curve (AUC) [16]: 0.8311
area under the curve (AUC) [17]: 1.29
area under the curve (AUC) [18]: 0.8186

CC(=O)c1c(C)c2cnc(Nc3ccc(N4CCNCC4)cn3)nc2n(C2CCCC2)c1=O [Palbociclib]
area under the curve (AUC) [1]: 1.647
area under the curve (AUC) [2]: 1.632
area under the curve (AUC) [3]: 1.681
area under the curve (AUC) [4]: 1.88
TP53 KO 3.4 pool (AUC) [4, 19]: 2.923
area under the curve (AUC) [5]: 1.826
area under the curve (AUC) [6]: 2.446
MCF7 WT Parental pool (AUC) [6, 19]: 3.461
area under the curve (AUC) [7]: 2.031
area under the curve (AUC) [8]: 1.522
area under the curve (AUC) [9]: 2.274
area under the curve (AUC) [10]: 2.127
area under the curve (AUC) [11]: 1.917
area under the curve (AUC) [12]: 1.497
area under the curve (AUC) [13]: 1.753
area under the curve (AUC) [14]: 1.457
TP53 KO 5.6 pool (AUC) [14, 19]: 3.234
area under the curve (AUC) [15]: 1.469
area under the curve (AUC) [16]: 2.543
area under the curve (AUC) [17]: 1.846
area under the curve (AUC) [18]: 2.542

CC[C@@]1(O)C(=O)OCc2c1cc1n(c2=O)Cc2cc3c(CN(C)C)c(O)ccc3nc2-1 [Topotecan Hydrochloride]
TP53 KO 3.4 pool (AUC) [4, 19]: 0.7814
MCF7 WT Parental pool (AUC) [6, 19]: 0.7919
TP53 KO 5.6 pool (AUC) [14, 19]: 0.8044

CC(=O)Nc1cccc(-n2c(=O)n(C3CC3)c(=O)c3c(Nc4ccc(I)cc4F)n(C)c(=O)c(C)c32)c1 [Trametinib]
TP53 KO 3.4 pool (AUC) [4, 19]: 6.641
MCF7 WT Parental pool (AUC) [6, 19]: 7.726
TP53 KO 5.6 pool (AUC) [14, 19]: 8.533

CC1=C(/C=C/C(C)=C/C=C/C(C)=C/C(=O)O)C(C)(C)CCC1 [Tretinoin]
TP53 KO 3.4 pool (AUC) [4, 19]: 7.809
MCF7 WT Parental pool (AUC) [6, 19]: 7.394
TP53 KO 5.6 pool (AUC) [14, 19]: 7.997

C1CN1c1nc(N2CC2)nc(N2CC2)n1 [Triethyleneme1amine]
TP53 KO 3.4 pool (AUC) [4, 19]: 2.224
MCF7 WT Parental pool (AUC) [6, 19]: 2.223
TP53 KO 5.6 pool (AUC) [14, 19]: 2.319

Oc1ncc(N(CCCl)CCCl)c(O)n1 [UracilMustard]
TP53 KO 3.4 pool (AUC) [4]: 9.337
MCF7 WT Parental pool (AUC) [6]: 9.331
TP53 KO 5.6 pool (AUC) [14]: 9.516

CCCCC(=O)OCC(=O)[C@]1(O)Cc2c(O)c3c(c(O)c2[C@@H](O[C@H]2C[C@H](NC(=O)C(F)(F)F)[C@H](O)[C@H](C)O2)C1)C(=O)c1c(OC)cccc1C3=O [Valrubicin]
TP53 KO 3.4 pool (AUC) [4, 19]: 1.25
MCF7 WT Parental pool (AUC) [6, 19]: 1.194
TP53 KO 5.6 pool (AUC) [14, 19]: 1.05

COc1cc2c(Nc3ccc(Br)cc3F)ncnc2cc1OCC1CCN(C)CC1 [Vandetanib]
TP53 KO 3.4 pool (AUC) [4, 19]: 2.831
MCF7 WT Parental pool (AUC) [6, 19]: 2.871
TP53 KO 5.6 pool (AUC) [14, 19]: 3.022

CCCS(=O)(=O)Nc1ccc(F)c(C(=O)c2c[nH]c3ncc(-c4ccc(Cl)cc4)cc23)c1F [Vemurafenib]
TP53 KO 3.4 pool (AUC) [4, 19]: 7.987
MCF7 WT Parental pool (AUC) [6, 19]: 8.722
TP53 KO 5.6 pool (AUC) [14, 19]: 8.365

CC[C@]1(O)C[C@@H]2CN(CCc3c([nH]c4ccccc34)[C@@](C(=O)OC)(c3cc4c(cc3OC)N(C)[C@H]3[C@@](O)(C(=O)OC)[C@H](OC(C)=O)[C@]5(CC)C=CCN6CC[C@]43[C@@H]65)C2)C1 [Vinblastine Sulfate]
TP53 KO 3.4 pool (AUC) [4, 19]: 1.54
MCF7 WT Parental pool (AUC) [6, 19]: 1.393
TP53 KO 5.6 pool (AUC) [14, 19]: 1.382

CC[C@]1(O)C[C@H]2CN(CCc3c([nH]c4ccccc34)[C@@](C(=O)OC)(c3cc4c(cc3OC)N(C=O)[C@H]3[C@@](O)(C(=O)OC)[C@H](OC(C)=O)[C@]5(CC)C=CCN6CC[C@]43[C@@H]65)C2)C1 [Vincristine Sulfate]
TP53 KO 3.4 pool (AUC) [4, 19]: 1.776
MCF7 WT Parental pool (AUC) [6, 19]: 1.668
TP53 KO 5.6 pool (AUC) [14, 19]: 1.54

CS(=O)(=O)c1ccc(C(=O)Nc2ccc(Cl)c(-c3ccccn3)c2)c(Cl)c1 [Vismodegib]
TP53 KO 3.4 pool (AUC) [4, 19]: 8.017
MCF7 WT Parental pool (AUC) [6, 19]: 8.801
TP53 KO 5.6 pool (AUC) [14, 19]: 8.363

O=C(CCCCCCC(=O)Nc1ccccc1)NO [Vorinostat]
TP53 KO 3.4 pool (AUC) [4, 19]: 2.202
MCF7 WT Parental pool (AUC) [6, 19]: 2.073
TP53 KO 5.6 pool (AUC) [14, 19]: 2.114

O=P(O)(O)C(O)(Cn1ccnc1)P(=O)(O)O [Zoledronic Acid]
TP53 KO 3.4 pool (AUC) [4, 19]: 9.268
MCF7 WT Parental pool (AUC) [6, 19]: 9.222
TP53 KO 5.6 pool (AUC) [14, 19]: 9.417

Arsenic Trioxide
TP53 KO 3.4 pool (AUC) [4, 19]: 5.242
MCF7 WT Parental pool (AUC) [6, 19]: 5.018
TP53 KO 5.6 pool (AUC) [14, 19]: 5.373

Bleomycin Sulfate
TP53 KO 3.4 pool (AUC) [4, 19]: 4.694
MCF7 WT Parental pool (AUC) [6, 19]: 3.922
TP53 KO 5.6 pool (AUC) [14, 19]: 3.421
